{"source": "patent US20110288033A1", "about": "“Disulfide Compounds for Phototherapy” (Mallinckrodt Inc., priority 2010, published 2011)", "key": {"[1]": {"test_system": "human myeloid leukemia U937 cell line", "type": "cell-based", "details": "0, 2.5, 5 and 10 μM; light 0, 10, 20 minutes", "description": "A general procedure is carried out for measuring cell viability upon exposure of cancer cells to a disulfide photosensitizer and light. The disulfide photosensitizer evaluated is a commercially available compound having formula (FX13): […]\nCompound (FX13) was purchased from Sigma-Aldrich (Cat #158194). […] Preparation of compound (FX13) is known and can be found, for example, in Rath, C. Derivatives of pyridine. XII. Mercaptans and sulfonic acids of pyridine. Justus Liebigs Annalen der Chemie 1931, 487, 105-119, which is hereby incorporated by reference. Some properties of compound (FX13) are known and can be found, for example, in Grassetti, D. R.; Brokke, M. E.; Murray, J. F., Jr. The effect of some sulfur-containing pyridine derivatives on the carbohydrate metabolism of ehrlich ascites tumor. J. Med. Chem. 1965, 8, 753-756, which is hereby incorporated by reference. The cell viability analysis is carried out using a human myeloid leukemia U937 cell line by the standard WST-1 assay. […]\nThe disulfide photosensitizer is dissolved in DMSO at an initial concentration of about 8 mM and diluted with water to the final desired value such that amount of DMSO exposed to the cells is kept […]. […] The viability of cells is assessed after 24 hours following light exposure. […] The number of viable cells is determined and percent viability is determined: […]"}, "UV spectrum in DMSO": {"assay": "UV spectrum in DMSO", "type": "physicochemical"}}}
{"smiles": "O=[N+]([O-])c1ccc(SSc2ccc([N+](=O)[O-])cn2)nc1", "note": "[FX13]", "values": [{"measurement": "change in cell viability with photosensitizer and light (FIG. 5)", "setting": "[1]", "result": "concentration-dependent and light exposure time-dependent decrease in cell viability"}, {"measurement": "absorption λmax", "setting": "UV spectrum in DMSO", "result": 323, "unit": "nm"}]}
